Results as given in patent publication US20060270628A1, “Antiinfective 1,2,3-triazole derivatives, process for their preparation and pharmaceutical compositions containing them” (priority 2003, published 2006).
≈ marks a conversion by molar mass, not a printed value.

Experiments:
[1] = test system: Enterococcus faecalis NCTC 12201 (DRCC 153, R); assay: MIC by broth microdilution, Enterococcus sp 153 R; type: cell-based; settings: NCTC12201, Enterococcus DRCC 153 (E. faecalis NCTC 12201), read-out: Antimicrobial Screening (MIC) Enterococcus sp 153 R
Protocol: (§1) Minimum Inhibiton Concentrations (MICs) were determined by broth microdilution technique as per the guidelines prescribed in the fifth edition of Approved Standards, NCCLS document M7-A5 Vol 20-No 2, 2000 Villinova, Pa.
(§2) Initial stock solution of the test compound was prepared in DMSO. Subsequent two fold dilutions were carried out in sterile Mueller Hinton Broth (Difco) (MHB).
(§3) Frozen cultures stocks were inoculated into 50 ml sterile MHB in 250 ml Erlyn Meyer flasks. • Composition of MHB is as follows: • Beef Extract Powder—2.0 grams/litre • Acid Digest of Casein—17.5 grams/litre • Soluble Starch—1.5 grams/litre • Final pH 7.3±0.1
(§4) Flasks were incubated for 4 to 5 hours at 35° C. on a rotary shaker at 150 rpm. Inoculum was prepared by diluting the culture in sterile MHB to obtain a turbidity of 0.5 McFarland standard. This corresponds to 1-2×10^8 CFU/ml. The stock was further diluted in sterile broth to obtain 1-2×10^6 CFU/ml. 50 μl of the above diluted inoculum was added from 1-10 wells. The plates were incubated overnight at 37° C.

[2] = test system: Mycobacterium MTCC006; assay: MIC by broth microdilution, Mycobacterium MTCC006; type: cell-based; settings: read-out: Antimicrobial Screening (MIC) Mycobacterium MTCC006
Protocol: as §1, §2, §3, §4

[3] = test system: Staphylococcus aureus ATCC 33591 (DRCC 019, MRSA); assay: MIC by broth microdilution, Staphylococcus aureus 019 MRSA; type: cell-based; settings: Staphylococcus aureus DRCC 019 (ATCC 33591), read-out: Antimicrobial Screening (MIC) Staphylococcus aureus 019 MRSA
Protocol: as §1, §2, §3, §4

[4] = test system: Staphylococcus aureus ATCC 49951 (DRCC 213, Smith S); assay: MIC by broth microdilution, Staphylococcus aureus 213 Smith S; type: cell-based; settings: ATCC49951, Staphylococcus aureus DRCC 213 (ATCC 49951), read-out: Antimicrobial Screening (MIC) Staphylococcus aureus 213 Smith S
Protocol: as §1, §2, §3, §4

[5] = test system: Enterococcus faecium NCTC 12202 (DRCC 154, R); assay: MIC by broth microdilution, Enterococcus sp 154 R; type: cell-based; settings: NCTC12202, Enterococcus DRCC 154 (E. faecium NCTC 12202), read-out: Antimicrobial Screening (MIC) Enterococcus sp 154 R
Protocol: as §1, §2, §3, §4

[6] = test system: Staphylococcus aureus ATCC 29213 (DRCC 035, S); assay: MIC by broth microdilution, Staphylococcus aureus 035 S; type: cell-based; settings: ATCC29213, Staphylococcus aureus DRCC 035 (ATCC 29213), read-out: Antimicrobial Screening (MIC) Staphylococcus aureus 035 S
Protocol: as §1, §2, §3, §4

[7] = test system: Enterococcus faecalis ATCC 29212 (DRCC 034, S); assay: MIC by broth microdilution, Enterococcus sp 034 S; type: cell-based; settings: ATCC29212, Enterococcus DRCC 034 (E. faecalis ATCC 29212), read-out: Antimicrobial Screening (MIC) Enterococcus sp 034 S
Protocol: as §1, §2, §3, §4

[8] = test system: Salmonella TA97; assay: MIC by broth microdilution, Salmonella TA97; type: cell-based; settings: read-out: Antimicrobial Screening (MIC) Salmonella TA97
Protocol: as §1, §2, §3, §4

Q: Which melting point does the source give for `COC(=S)NCc1cn(-c2ccc(-n3cccc3)cc2)nn1` [Example 1, [1-(4-Pyrrol-1-yl-phenyl)-1H-[1,2,3]triazol-4-ylmethyl]-thiocarbamic acid O-methyl ester] here?
A: The melting point was 150 °C.

Q: Which melting point does the source give for `COC(=S)NCc1cn(-c2ccc(-n3ccc(C=O)c3)cc2)nn1` [Example 2, {1-[4-(3-Formyl-pyrrol-1-yl)-phenyl]-1H-[1,2,3]triazol-4-ylmethyl}-thiocarbamic acid O methyl ester] here?
A: The melting point was 160 to 162 °C.

Q: Which MIC [1] does the source give for `COC(=S)NCc1cn(-c2cc(F)c(-n3ccc(C#N)c3)c(F)c2)nn1` [Example 8, {1-[4-(3-Cyano-pyrrol-1-yl)-3,5-difluoro-phenyl]-1H-[1,2,3]triazol-4-ylmethyl}-thiocarbamic acid O-methyl ester] here?
A: The MIC was 0.5 µg/mL (≈ 1.34 µM).

Q: And the MIC [2]?
A: Its MIC is 32 µg/mL (≈ 85.5 µM).

Q: And the MIC [3]?
A: The MIC was 0.5 µg/mL (≈ 1.34 µM).

Q: And the MIC [4]?
A: The MIC was 0.5 µg/mL (≈ 1.34 µM).

Q: And the MIC [5]?
A: The MIC was 0.5 µg/mL (≈ 1.34 µM).

Q: And the MIC [6]?
A: The MIC was 1 µg/mL (≈ 2.67 µM).

Q: And the MIC [7]?
A: The MIC was 0.5 µg/mL (≈ 1.34 µM).

Q: What about the MIC [8] of the same compound?
A: Its MIC is 32 µg/mL (≈ 85.5 µM).

Q: For `COC(=S)NCc1cn(-c2cc(F)c(-n3ccnc3)c(F)c2)nn1` [Example 9, [1-(3,5-Difluoro-4-imidazol-1-yl-phenyl)-1H-[1,2,3]triazol-4-ylmethyl]-thiocarbamic acid O-methyl ester], which MIC [1] is on record?
A: The MIC was 1 µg/mL (≈ 2.85 µM).

Q: What about the MIC [2] of the same compound?
A: Its MIC is 4 µg/mL (≈ 11.4 µM).

Q: What about the MIC [3] of the same compound?
A: The MIC was 1 µg/mL (≈ 2.85 µM).

Q: And the MIC [4]?
A: Its MIC is 1 µg/mL (≈ 2.85 µM).

Q: What about the MIC [5] of the same compound?
A: The MIC was 2 µg/mL (≈ 5.71 µM).

Q: What about the melting point of the same compound?
A: Its melting point is 180 °C.

Q: And the MIC [6]?
A: The MIC was 1 µg/mL (≈ 2.85 µM).

Q: And the MIC [7]?
A: The MIC was 2 µg/mL (≈ 5.71 µM).

Q: What about the MIC [8] of the same compound?
A: The MIC was 32 µg/mL (≈ 91.3 µM).

Q: Which melting point does the source give for `COC(=S)NCc1cn(-c2ccc(-n3ccnc3)c(F)c2)nn1` [Example 10, [1-(3-Fluoro-4-imidazol-1-yl-phenyl)-1H-[1,2,3]triazol-4-ylmethyl]-thiocarbamic acid O-methyl ester] here?
A: Its melting point is 165 to 167 °C.

Q: With `COC(=S)NCc1cn(-c2ccc(-n3cncn3)c(F)c2)nn1` [Example 20, [1-(3-Fluoro-4-[1,2,4]triazol-1-yl-phenyl)-1H-[1,2,3]triazol-4-yl-methyl]-thiocarbamic acid O-methyl ester] as the compound, how does the MIC [1] read?
A: The MIC was 32 µg/mL (≈ 96 µM).

Q: What about the MIC [2] of the same compound?
A: The MIC was 16 µg/mL (≈ 48 µM).

Q: What about the MIC [3] of the same compound?
A: Its MIC is 8 µg/mL (≈ 24 µM).

Q: And the MIC [4]?
A: Its MIC is 16 µg/mL (≈ 48 µM).

Q: What about the MIC [5] of the same compound?
A: Its MIC is 32 µg/mL (≈ 96 µM).

Q: And the melting point?
A: The melting point was 179 °C.

Q: And the MIC [6]?
A: Its MIC is 16 µg/mL (≈ 48 µM).

Q: What about the MIC [7] of the same compound?
A: Its MIC is 32 µg/mL (≈ 96 µM).

Q: And the MIC [8]?
A: Its MIC is 32 µg/mL (≈ 96 µM).

Q: With `CC(=O)NCc1cn(-c2ccc(-n3cccc3)c(F)c2)nn1` [Example 22, N-[1-(3-Fluoro-4-pyrrol-1-yl-phenyl)-1H-[1,2,3]triazol-4-ylmethyl]-acetamide] as the compound, how does the melting point read?
A: The melting point was 210 to 215 °C.

Q: With `CC(=S)NCc1cn(-c2ccc(-n3ccnc3)c(F)c2)nn1` [Example 24, N-[1-(3-Fluoro-4-imidazol-1-yl-phenyl)-1H-[1,2,3]triazol-4-ylmethyl]-thioacetamide] as the compound, how does the melting point read?
A: The melting point was 185 °C.

Q: Which melting point does the source give for `CC(=O)NCc1cn(-c2ccc(-n3cncn3)c(F)c2)nn1` [Example 25, N-[1-(3-Fluoro-4-[1,2,4]triazol-1-yl-phenyl)-1H-[1,2,3]triazol-4-ylmethyl]-acetamide] here?
A: The melting point was 223 °C.

Q: For `COC(=S)NCc1cn(-c2ccc(-n3cnc(CO)c3)c(F)c2)nn1` [Example 27, {1-[3-Fluoro-4-(4-hydroxymethyl-imidazol-1-yl)-phenyl]-1H-[1,2,3]triazol-4-ylmethyl}-thiocarbamic acid O-methyl ester], which MIC [1] is on record?
A: Its MIC is 1 µg/mL (≈ 2.76 µM).

Q: And the MIC [2]?
A: Its MIC is 16 µg/mL (≈ 44.2 µM).

Q: And the MIC [3]?
A: Its MIC is 1 µg/mL (≈ 2.76 µM).

Q: What about the MIC [4] of the same compound?
A: Its MIC is 1 µg/mL (≈ 2.76 µM).

Q: And the MIC [5]?
A: Its MIC is 2 µg/mL (≈ 5.52 µM).

Q: And the melting point?
A: Its melting point is 179 °C.

Q: And the MIC [6]?
A: Its MIC is 1 µg/mL (≈ 2.76 µM).

Q: What about the MIC [7] of the same compound?
A: The MIC was 2 µg/mL (≈ 5.52 µM).

Q: What about the MIC [8] of the same compound?
A: The MIC was 32 µg/mL (≈ 88.3 µM).
